Legend:
Type in all cases: cell-based
human TLR7 = molecular target: T1, human TLR7 (Homo sapiens, UniProt Q9NYK1); assay: TLR7 cellular reporter assay (HEK293, NFκB-luc); details: HEK293 transiently transfected with TLR7 and NFκB-luc; 6 hours incubation; lowest effective concentration
T1 construct: expressed in transfected cells; host or cells: HEK293 (transient transfection)
T1 sequence (Q9NYK1 27-1049): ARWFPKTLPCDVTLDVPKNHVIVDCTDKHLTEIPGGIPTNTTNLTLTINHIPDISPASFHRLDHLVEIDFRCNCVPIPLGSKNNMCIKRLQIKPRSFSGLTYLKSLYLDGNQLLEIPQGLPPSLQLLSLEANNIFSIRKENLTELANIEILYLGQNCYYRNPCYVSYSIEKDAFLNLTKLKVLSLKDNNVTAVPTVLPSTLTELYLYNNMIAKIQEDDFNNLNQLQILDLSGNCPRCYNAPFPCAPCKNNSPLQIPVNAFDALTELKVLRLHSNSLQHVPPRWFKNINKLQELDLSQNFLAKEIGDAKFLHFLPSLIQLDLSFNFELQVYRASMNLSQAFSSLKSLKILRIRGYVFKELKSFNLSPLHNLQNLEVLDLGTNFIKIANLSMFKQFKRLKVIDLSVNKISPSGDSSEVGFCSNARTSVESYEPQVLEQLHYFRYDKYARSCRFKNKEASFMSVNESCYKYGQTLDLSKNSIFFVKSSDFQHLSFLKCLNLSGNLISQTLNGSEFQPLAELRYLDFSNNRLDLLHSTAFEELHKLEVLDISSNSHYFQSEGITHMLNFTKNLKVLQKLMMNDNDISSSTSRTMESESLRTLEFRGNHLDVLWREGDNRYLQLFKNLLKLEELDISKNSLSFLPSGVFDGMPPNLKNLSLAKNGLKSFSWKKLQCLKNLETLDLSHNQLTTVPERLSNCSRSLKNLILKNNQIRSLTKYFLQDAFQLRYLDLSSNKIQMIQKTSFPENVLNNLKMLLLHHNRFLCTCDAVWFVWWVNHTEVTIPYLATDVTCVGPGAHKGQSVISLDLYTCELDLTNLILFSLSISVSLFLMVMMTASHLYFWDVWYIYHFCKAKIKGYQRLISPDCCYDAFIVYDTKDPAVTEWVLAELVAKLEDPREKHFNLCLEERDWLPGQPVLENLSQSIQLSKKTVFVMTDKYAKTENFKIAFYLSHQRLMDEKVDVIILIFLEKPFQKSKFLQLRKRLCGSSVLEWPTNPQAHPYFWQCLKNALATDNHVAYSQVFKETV
Method: (§1) The ability of compounds to activate human TLR7 and/or TLR8 was assessed in a cellular reporter assay using HEK293 cells transiently transfected with a TLR7 or TLR8 expression vector and NFκB-luc reporter construct.
(§2) Briefly, HEK293 cells were grown in culture medium (DMEM supplemented with 10% FCS and 2 mM Glutamine). For transfection of cells in 15 cm dishes, cells were detached with Trypsin-EDTA, transfected with a mix of CMV-TLR7 or TLR8 plasmid (1700 ng), NFκB-luc plasmid (850 ng) and a transfection reagent and incubated for 48 h at 37° C. in a humidified 5% CO2 atmosphere. Transfected cells were then washed in PBS, detached with Trypsin-EDTA and resuspended in medium to a density of 1.25×10^5 cells/mL. Forty microliters of cells were then dispensed into each well in 384-well plates, where 200 nL of compound in 100% DMSO was already present. Following 6 hours incubation at 37° C., 5% CO2, the luciferase activity was determined by adding 15 μL of Steady Lite Plus substrate (Perkin Elmer) to each well and readout performed on a ViewLux ultraHTS microplate imager (Perkin Elmer). Dose response curves were generated from measurements performed in quadruplicates. Lowest effective concentrations (LEC) values, defined as the concentration that induces an effect which is at least two fold above the standard deviation of the assay, were determined for each compound.

human TLR8 = molecular target: T2, human TLR8 (Homo sapiens, UniProt Q9NR97); assay: TLR8 cellular reporter assay (HEK293, NFκB-luc); details: HEK293 transiently transfected with TLR8 and NFκB-luc; 6 hours incubation; lowest effective concentration
T2 construct: expressed in transfected cells; host or cells: HEK293 (transient transfection)
T2 sequence (Q9NR97 27-1041): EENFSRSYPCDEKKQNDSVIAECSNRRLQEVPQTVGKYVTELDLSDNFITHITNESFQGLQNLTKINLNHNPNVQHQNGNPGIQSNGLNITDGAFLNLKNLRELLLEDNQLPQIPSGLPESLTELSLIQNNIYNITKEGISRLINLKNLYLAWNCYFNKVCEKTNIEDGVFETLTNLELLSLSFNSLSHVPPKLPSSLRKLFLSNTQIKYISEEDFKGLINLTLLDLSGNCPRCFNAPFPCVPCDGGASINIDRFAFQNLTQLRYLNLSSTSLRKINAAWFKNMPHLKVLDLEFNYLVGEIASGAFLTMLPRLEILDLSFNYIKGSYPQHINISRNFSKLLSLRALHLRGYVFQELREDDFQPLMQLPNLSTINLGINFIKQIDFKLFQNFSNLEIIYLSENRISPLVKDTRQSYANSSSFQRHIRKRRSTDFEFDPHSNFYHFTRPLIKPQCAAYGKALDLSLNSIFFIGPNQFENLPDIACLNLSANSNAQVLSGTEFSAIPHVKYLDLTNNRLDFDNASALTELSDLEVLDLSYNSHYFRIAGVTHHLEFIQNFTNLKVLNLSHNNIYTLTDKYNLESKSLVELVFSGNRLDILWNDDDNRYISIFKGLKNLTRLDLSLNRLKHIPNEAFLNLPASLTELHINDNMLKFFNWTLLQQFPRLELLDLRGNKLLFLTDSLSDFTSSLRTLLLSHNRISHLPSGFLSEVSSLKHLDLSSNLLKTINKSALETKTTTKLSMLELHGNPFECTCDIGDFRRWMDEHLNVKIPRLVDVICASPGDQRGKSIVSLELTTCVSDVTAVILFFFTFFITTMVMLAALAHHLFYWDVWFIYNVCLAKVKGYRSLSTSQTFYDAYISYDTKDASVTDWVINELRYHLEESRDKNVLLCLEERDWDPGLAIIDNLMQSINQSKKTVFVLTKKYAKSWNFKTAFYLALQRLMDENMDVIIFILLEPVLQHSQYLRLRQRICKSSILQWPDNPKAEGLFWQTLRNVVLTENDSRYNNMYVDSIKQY
Method: as §1, §2

[1] = test system: interferon-stimulated responsive elements (ISRE); assay: Activation of ISRE promoter elements by conditioned media from PBMC (HEK-ISREluc); details: Homo sapiens; PBMC overnight incubation, supernatant on HEK-ISREluc cells 24 hours; lowest effective concentration; read-out: HEK-ISRE luc (LEC)
Method: The potential of compounds to induce IFN-I was also evaluated by measuring the activation of interferon-stimulated responsive elements (ISRE) by conditioned media from PBMC. The ISRE element of sequence GAAACTGAAACT (SEQ ID NO: 1) is highly responsive to the STAT1-STAT2-1RF9 transcription factor, activated upon binding of IFN-I to their receptor IFNAR (Clontech, PT3372-5W). The plasmid pISRE-Luc from Clontech (ref. 631913) contains 5 copies of this ISRE element, followed by the firefly luciferase ORF. A HEK293 cell line stably transfected with pISRE-Luc (HEK-ISREluc) was established to profile the conditioned PBMC cell culture media.
Briefly, PBMCs were prepared from buffy coats of at least two donors using a standard Ficoll centrifugation protocol. Isolated PBMCs were resuspended in RPMI medium supplemented with 10% human AB serum and 2×10^5 cells/well were dispensed into 384-well plates containing compounds (70 μL total volume). After overnight incubation, 10 μL of supernatant was transferred to 384-well plates containing 5×10^3 HEK-ISREluc cells/well in 30 μL (plated the day before). Following 24 hours of incubation, activation of the ISRE elements was measured by assaying luciferase activity using 40 μL/well Steady Lite Plus substrate (Perkin Elmer) and measured with ViewLux ultraHTS microplate imager (Perkin Elmer). The stimulating activity of each compound on the HEK-ISREluc cells was reported as LEC value, defined as the compound concentration applied to the PBMCs resulting in a luciferase activity at least two fold above the standard deviation of the assay. The LEC in turn indicates the degree of ISRE activation on transfer of a defined amount of PBMC culture medium. Recombinant interferon α-2a (Roferon-A) was used as a standard control compound.

Compound	Human TLR 7 (LEC) (human TLR7) [µM]	Human TLR 8 (LEC) (human TLR8) [µM]	minimal effective concentration [1] [µM]
CCCCCCNc1nc(N)ncc1Cn1ccccc1=O [Compound 9]	7.3	>25	3
CCCCCNc1nc(N)ncc1Cn1ccccc1=O [Compound 8]	1.5	>25	0.6
CCCCNc1nc(N)ncc1Cn1c(C)cccc1=O [Compound 2]	1.1	2.1	0.8
CCCCC(C)Nc1nc(N)ncc1Cn1ccccc1=O (stereo not drawn) [Compound 10]	1.0	16	0.3
CCCC(C)Nc1nc(N)ncc1Cn1ccccc1=O (stereo not drawn) [Compound 11]	1.3	14.6	0.3
CCCCNc1nc(N)ncc1Cn1ccccc1=O [Compound 1]	1.8	7.3	0.7
CCCCNc1nc(N)ncc1Cn1cccc(F)c1=O [Compound 6]	1.2	6.9	0.5
CCCCNc1nc(N)ncc1Cn1ccc(C)cc1=O [Compound 4]	0.5	2.2	0.5
CCCCNc1nc(N)ncc1Cn1c(=O)ccc2ccccc21 [Compound 5]	0.9	2.7	0.04
CCCCNc1nc(N)ncc1Cn1cc(C)ccc1=O [Compound 3]	0.8	10.3	0.3
CCCCNc1nc(N)ncc1Cn1ccc(C(F)(F)F)cc1=O [Compound 7]	0.5	6.8	0.5

Reference: US10865193B2, “Pyridone derivatives for the treatment of viral infections and further diseases” (JANSSEN SCIENCES IRELAND UNLIMITED COMPANY, priority 2013, dated 2020)
